Like-named read-outs stand apart in the source and are kept apart here.
Legend:
MCP-1RB receptor [1] = format: cell-based, human; conditions: for IC50: Table I, read-out: Inhibition of Adenylyl Cyclase IC50 (nM) MCP-1RB; for activation of the MCP-1 receptor in the adenylyl cyclase assay: high concentrations
Procedure: (§1) To investigate inhibition of adenylyl cyclase activity, HEK-293 cells stably-transfected with the MCP-1RB receptor and the MIP-1α/RANTES receptor were grown until confluent in 24-well tissue culture dishes and labeled overnight with 2 μCi/ml of [^3 H]adenine (25-30 Ci/mmol) (New England Nuclear, Boston, Mass.) in MEM-EBSS supplemented with 10% FCS. The next day, the cells were washed by incubation at room temperature with 0.5 ml of serum-free MEM-EBSS media supplemented with 10 mM HEPES, 1 mg/ml BSA, and 1 mM IBMX (3-isobutyl-1-methylxanthine) for 5 min. […] The incubation was terminated by replacement of the media with 1 ml of ice-cold 5% TCA (trichloroacetic acid), 1 mM cAMP, and 1 mM ATP (Sigma). Following incubation at 4° C. for 30 min, the labeled [^3 H]ATP and [3H]cAMP pools were separated and quantitated by chromatography on Dowex 50W (200-400 mesh, hydrogen form, from Sigma) and neutral alumina columns (also from Sigma), as described in Hung, J. Biol. Chem. 267:20831-34 (1992) and Wong, Nature 351: 63-65 (1991). The 1 ml acid supernatant was loaded onto a 1-ml Dowex 50W column and the ATP pool eluted with 3 ml of H2 O. The Dowex 50W columns were then placed over 1-ml alumina columns, and 10 ml of H2 O was added to the Dowex resin and the eluant allowed to drop directly onto the neutral alumina. The cAMP pool was then eluted directly from the alumina with 5 ml of 0.1M imidazole/0.01mM sodium azide. The [^3 H]ATP and [^3 H]cAMP fractions were counted by liquid scintillation spectroscopy. The cAMP pool for each sample was normalized to its own ATP pool and expressed as a ratio by the equation (cAMP cpms/ATP cpms)×100. In each experiment full dose-response curves were generated and expressed as a percent of the forskolin control.
(§2) Inhibition of MCP-1RB receptor activation by bordetella pertussis toxin was investigated. Pertussis toxin (List Biological Labs, Inc., Campbell, Calif.) was dissolved in 0.01M sodium phosphate, pH 7.0, 0.05M sodium chloride and diluted into normal serum containing media at final concentrations of 0.1 ng/ml to 100 ng/ml, and incubated with cells overnight (14-16 h) at 37° C. The conditions of the Pertussis toxin treatment of the 293 cells were identical for calcium fluorimetric and adenylyl cyclase experiments. In the adenylyl cyclase experiments, the Pertussis toxin was added at the same time as [^3 H]adenine.
(§3) Dose response curves generated in the calcium fluorimetric and adenylyl cyclase inhibition assays were fit by a nonlinear least squares program to the logistic equation:
(§4) Effect=max effect/[1+(EC50 /(agonist)^n)]
(§5) where n and EC50 represent the Hill coefficient and the agonist concentration that elicited a half-maximal response, respectively, and were derived from the fitted curve. Curve fitting was done with the computer program "Prism" (by Graph Pad, San Diego, Calif.). Results represent the mean ±SE. The 95% confidence intervals (CI) of the EC50 and IC50 values, when given, were calculated from the log EC50 and IC50 values, respectively.

MIP-1α/RANTES receptor = test: Inhibition of adenylyl cyclase (cAMP accumulation) in HEK-293 cells stably transfected with MIP-1α/RANTES receptor; format: cell-based; conditions: for activation of the MIP-1α/RANTES receptor: at up to 1 μM
Procedure: as §1
In similar experiments the MIP-1α/RANTES receptor was stably transfected into 293 cells and also found to mediate potent and dose-dependent inhibition of adenylyl cyclase activity. Unlike the MCP-1RB receptor, however, the MIP-1α/RANTES receptor was activated by multiple chemokines with varying degrees of potency.
as §3, §4, §5

MCP-1RB receptor [2] = test: Intracellular calcium mobilization (indo-1) in stably transfected MCP-1RB/293 cells; format: cell-based, human; conditions: for block of stimulation of the cells by MCP-1 / stimulation of calcium signals: MCP-1RB/293 cells; for stimulation of calcium signals: high concentrations
Procedure: Calcium mobilization in 293 cells was then investigated. Transfected HEK-293 cells were grown until confluent, trypsinized briefly, washed with phosphate buffered saline containing 1 mg/ml BSA (PBS-BSA), and resuspended in serum-free MEM-EBSS supplemented with 1 mg/ml BSA and 10 mM HEPES (pH 7.0) at a density of 2×10^7 cells/ml. The cells were incubated in the dark at 37° C. for 20 min in the presence of 5-10 μg/ml indo-1 AM (Molecular Probes, Inc., Eugene, Oreg.). Nine volumes of PGS-BSA were added, and the cells were incubated for an additional 10 min at 37° C., pelleted by centrifugation, and washed twice with 50 ml of the PBS-BSA solution. Washed, indo-1-loaded cells were then resuspended in Hank's Balanced Salt Solution (1.3 mM Ca^2+) supplemented with 1 mg/ml BSA (HBS-BSA) at a density of approximately 0.5×10^6 cells/ml at room temperature. To measure intracellular calcium ([Ca^2+ ]i), 0.5 ml of the cell suspension was placed in a quartz cuvette in a Hitachi F-2000 fluorescence spectrophotometer. […] Intracellular calcium was measured by excitation at 350 nm and fluorescence emission detection at 490 nm (F1) and 410 nm (F2) wavelengths. The [Ca^2+ ]i was estimated by comparing the 490/410 fluorescence ratio after agonist application (R) to that of calibration ratios measured at the end of each run, according to the equation:
[Ca^2+ ]i =Kd ×[(R--Rmin)/(Rmax
where Rmax and Rmin represent the fluorescence ratio under saturating (1.3 mM Ca^2+) and nominally free (10 mM EGTA, Sigma Chemical Co.) calcium conditions, Kd is the dissociation constant of calcium for indo-1, R is the fluorescence ratio, and Sf2/Sb2 is the fluorescence ratio of free and bound indo-1 dye at 410 nm. See Thomas, AP and Delaville, F (1991) in Cellular Calcium, a Practical Approach, Oxford Univ. Press, pp. 1-54.
To quantirate calcium responses, MCP-1 dose response curves were generated in each experiment and the results were expressed as a percent of the maximum calcium signal (at 300 nM MCP-1) measured in that experiment. The changes in [Ca^2+ ]i levels in response to each concentration of agonist were determined by subtracting the baseline from peak [Ca^2+ ]i levels, which were determined by averaging 5 seconds of data prior to agonist addition and surrounding the peak response, respectively. In experiments done to determine the role of extracellular calcium, 3 mM EGTA was added 60-90 seconds prior to MCP-1. […] All experiments were performed at room temperature.
as §2, §3, §4, §5

MCP-1RB receptor [3] = test: Equilibrium binding of 125I-MCP-1 to MCP-1RB expressing HEK-293 cells; set-up: species or system human; conditions: unlabeled chemokine, 500 pM 125I-labeled MCP-1
Procedure: Equilibrium binding assays were then performed using the method of Ernst, J. Immunol. 152:3541-49 (1994). […] Competition experiments were performed using 500 pM ^125 I-labeled MCP-1 and the concentrations of unlabeled chemokines as indicated in FIG. 7A-B.
Equilibrium binding data were analyzed according to the method of Scatchard using the program "LIGAND" (Biosoft, Ferguson, Mo.) on a Macintosh computer. See Munson, Anal. Biochem. 107: 220-39 (1980).

MM6 cells = test: MCP-1 induced calcium flux in MM6 cells (calcium efflux assay); format: cell-based, human; conditions: label = chemokine given first, MCP-1 versus RANTES (or MIP-1α)
Procedure: Because monocytes are difficult to isolate in usable quantity and express less than 2000 high affinity MCP-1 binding sites per cell, a cultured cell line that responded well to MCP-1 had to be identified. Using the calcium effiux assay as described in Vu, Cell 64:1057-68(1991), MCP-1 induced calcium fluxes in various cell lines were measured. […] In contrast, a dose-dependent calcium flux was detected in MM6 cells, with half maximal stimulation at 4nM MCP-1.

MCP-1RA = test: Ca45 efflux assay in Xenopus oocytes injected with MCP-1RA cRNA; format: cell-based, human; conditions: ligand at 500 nM
Procedure: (§6) The calcium efflux assay was performed to confirm expression of functional MCP-1R protein and to determine whether the MCP-1 receptors A and B conferred responsiveness to MCP-1 or other chemokines. In this assay, MCP-1RA and 1RB cRNA was microinjected into Xenopus oocytes and receptor signaling activities measured by detection of agohist-induced calcium mobilization.
(§7) As described in Vu, Cell 64:1057-68(1991), cRNA was prepared by SP6 RNA polymerase transcription from a NotI linearized vector and run on an agarose gel to confirm a single band of the expected size. One day after harvesting, oocytes were injected with 20 ng of cRNA in a total volume of 50 nl per oocyte. After incubation in modified Barth's buffer for 2 days at 16° C., the oocytes were loaded with Ca^45 (50 uCi/ml, Amersham, Arlington Heights, Va.) for 3 hours, washed for one hour, and placed into wells of a 24-well dish in groups of seven, in a volume of 0.5 ml Ca^45 efflux was determined by collecting the media at 10 minute intervals and counting beta emissions in a liquid scintillation counter. […] Uninjected oocytes were used as controls.

MCP-1RB = test: Ca45 efflux assay in Xenopus oocytes injected with MCP-1RB cRNA; format: cell-based, human; conditions: ligand at 500 nM
Procedure: as §6, §7

[4] = MIP-1α/RANTES receptor, read-out: IC50 for inhibition of adenylyl cyclase
[5] = pretreatment overnight, 0.1 to 100 ng/ml

Row | Molecule | IC50 (MCP-1RB receptor [1]) [nM] | activation of the MCP-1 receptor in the adenylyl cyclase assay (MCP-1RB receptor [1]) | block of stimulation of the cells by MCP-1 (MCP-1RB receptor [2]) | stimulation of calcium signals (MCP-1RB receptor [2]) | competition for 125I-MCP-1 binding (MCP-1RB receptor [3]) | calcium efflux response elicited (MCP-1RA) | calcium efflux response elicited (MCP-1RB) | other results
1 | C=C[C@@]1(C)CC(=O)[C@]2(O)[C@@]3(C)[C@@H](O)CCC(C)(C)[C@@H]3[C@H](O)[C@H](OC(C)=O)[C@@]2(C)O1 [Forskolin, forskolin, reference compound] | – | – | – | – | – | – | – | increase of cAMP levels (MCP-1RB receptor [1]; hek-293 cells, 20 min, 10 µM): 16 fold
2 | Gro-α: C-X-C chemokine | > 1000 | Virtually no activation | failed to block | failed to stimulate significant calcium signals | – | – | – | IC50 (MIP-1α/RANTES receptor; Table I, read-out: Inhibition of Adenylyl Cyclase IC50 (nM) MIP-1α/RANTES R): > 1000 nM; activation of the MIP-1α/RANTES receptor (MIP-1α/RANTES receptor): did not activate
3 | RANTES: C--C chemokine, obtained from R&D | > 1000 | Virtually no activation | failed to block | failed to stimulate significant calcium signals | did not compete for binding | no response | No response | IC50 (MIP-1α/RANTES receptor; [4]): ~0.1 nM; effect of prior exposure to the chemokine on the calcium response to the other chemokine (MM6 cells): could not be ablated
4 | interleukin-8 [IL-8] | – | Virtually no activation | failed to block | failed to stimulate significant calcium signals | – | No response | No response | activation of the MIP-1α/RANTES receptor (MIP-1α/RANTES receptor): did not activate; calcium efflux response elicited (MCP-1RA; listed as Il-8): no response
5 | macrophage inhibitory protein-1 [MIP-1α] | > 1000 | Virtually no activation | failed to block | failed to stimulate significant calcium signals | did not compete for binding | no response | No response | IC50 (MIP-1α/RANTES receptor; [4]): ~0.1 nM
6 | pertussis toxin [reference compound] | – | – | – | – | – | – | – | component resistant to inhibition (MCP-1RB receptor [1]; adenylyl cyclase inhibition, up to 100 ng/ml of PT): ≈ 20%; shift of the MCP-1 IC50 for cAMP accumulation (MCP-1RB receptor [1]; pertussis toxin treatment): without significantly shifting; block of MCP-1 inhibition of adenylyl cyclase (MCP-1RB receptor [1]; [5]): substantially blocked; component resistant to inhibition (MCP-1RB receptor [2]; calcium mobilization, up to 100 ng/ml of PT): ≈ 20%; block of MCP-1-induced mobilization of intracellular calcium (MCP-1RB receptor [2]; [5]): substantially blocked
7 | macrophage inhibitory protein-1 [MIP-1β] (protein, UniProt P13236 24-92, looked up, C--C chemokine, obtained from R&D) C-C motif chemokine 4: APMGSDPPTACCFSYTARKLPRNFVVDYYETSSLCSQPAVVFQTKRSKQVCADPSESWVQEYVYDLELN | > 1000 | Virtually no activation | failed to block | failed to stimulate significant calcium signals | did not compete for binding | no response | No response | –
